# Experiments:
# [1] = biological target: GST-JAK3 enzyme (Homo sapiens (Human), UniProt P52333); assay: JAK3 Kinase Assay Protocol (Caliper); format: biochemical; conditions: JAK3 kinase inhibition; read-out: LLE_JAK3_FB (IC50)
# Procedure: JAK3 Kinase Assay Protocol (Caliper)
# (§1) The assay reactions were performed in U-bottom 384-well plates. […] The reaction was initiated by the combination of GST-JAK3 enzyme with substrates and test compounds. The reactions were incubated at room temperature for 3 hours and terminated by adding 60 μl of 35 mM EDTA to each sample. Each reaction mixture was analyzed on the Caliper LabChip 3000 (Caliper, Hopkinton, Mass.) by electrophoretic separation of the fluorescent substrate and phosphorylated product. […] Compounds were dissolved at 10 mM in dimethylsulfoxide (DMSO) and evaluated at eleven concentrations. IC50 values were derived by non-linear regression analysis.
# [2] = biological target: GST-JAK1 enzyme (Homo sapiens (Human), UniProt P23458); assay: JAK1 Kinase Assay Protocol; format: biochemical; conditions: JAK1 kinase inhibition; read-out: LLE_JAK1 (IC50)
# Chain of GST-JAK1 enzyme (P23458 whole entry): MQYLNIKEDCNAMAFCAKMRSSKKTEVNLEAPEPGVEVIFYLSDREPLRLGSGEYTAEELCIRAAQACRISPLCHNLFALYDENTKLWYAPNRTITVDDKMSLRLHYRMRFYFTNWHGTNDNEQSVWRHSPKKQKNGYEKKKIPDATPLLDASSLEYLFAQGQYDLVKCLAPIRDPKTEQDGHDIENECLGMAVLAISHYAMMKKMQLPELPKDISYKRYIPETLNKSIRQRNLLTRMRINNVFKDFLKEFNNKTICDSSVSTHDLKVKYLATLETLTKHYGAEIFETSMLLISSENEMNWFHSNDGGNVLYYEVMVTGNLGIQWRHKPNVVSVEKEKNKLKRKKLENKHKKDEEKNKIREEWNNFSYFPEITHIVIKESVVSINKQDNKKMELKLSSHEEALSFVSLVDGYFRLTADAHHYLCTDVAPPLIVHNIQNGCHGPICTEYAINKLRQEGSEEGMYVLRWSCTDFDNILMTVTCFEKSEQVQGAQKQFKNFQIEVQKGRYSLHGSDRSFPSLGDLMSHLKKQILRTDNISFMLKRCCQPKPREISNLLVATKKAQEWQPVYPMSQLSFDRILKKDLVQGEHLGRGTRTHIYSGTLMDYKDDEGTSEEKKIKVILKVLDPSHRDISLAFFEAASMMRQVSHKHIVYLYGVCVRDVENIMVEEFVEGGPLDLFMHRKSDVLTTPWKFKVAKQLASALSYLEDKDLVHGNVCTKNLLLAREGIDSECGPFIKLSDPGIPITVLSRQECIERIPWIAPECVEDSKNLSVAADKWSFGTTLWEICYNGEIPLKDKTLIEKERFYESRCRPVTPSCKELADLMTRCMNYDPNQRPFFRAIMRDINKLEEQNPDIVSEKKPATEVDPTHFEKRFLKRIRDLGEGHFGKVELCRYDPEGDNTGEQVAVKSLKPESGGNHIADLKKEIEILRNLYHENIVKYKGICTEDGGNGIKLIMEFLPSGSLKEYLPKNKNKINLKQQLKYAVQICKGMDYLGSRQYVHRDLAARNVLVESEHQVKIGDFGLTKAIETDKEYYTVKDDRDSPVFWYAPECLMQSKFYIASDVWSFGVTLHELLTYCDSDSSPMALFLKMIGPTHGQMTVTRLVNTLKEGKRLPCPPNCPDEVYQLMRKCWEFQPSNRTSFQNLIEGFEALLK
# Procedure: JAK1 Kinase Assay Protocol
# as §1, with “GST-JAK1” for “GST-JAK3”
# Chain of GST-JAK3 enzyme (P52333 whole entry): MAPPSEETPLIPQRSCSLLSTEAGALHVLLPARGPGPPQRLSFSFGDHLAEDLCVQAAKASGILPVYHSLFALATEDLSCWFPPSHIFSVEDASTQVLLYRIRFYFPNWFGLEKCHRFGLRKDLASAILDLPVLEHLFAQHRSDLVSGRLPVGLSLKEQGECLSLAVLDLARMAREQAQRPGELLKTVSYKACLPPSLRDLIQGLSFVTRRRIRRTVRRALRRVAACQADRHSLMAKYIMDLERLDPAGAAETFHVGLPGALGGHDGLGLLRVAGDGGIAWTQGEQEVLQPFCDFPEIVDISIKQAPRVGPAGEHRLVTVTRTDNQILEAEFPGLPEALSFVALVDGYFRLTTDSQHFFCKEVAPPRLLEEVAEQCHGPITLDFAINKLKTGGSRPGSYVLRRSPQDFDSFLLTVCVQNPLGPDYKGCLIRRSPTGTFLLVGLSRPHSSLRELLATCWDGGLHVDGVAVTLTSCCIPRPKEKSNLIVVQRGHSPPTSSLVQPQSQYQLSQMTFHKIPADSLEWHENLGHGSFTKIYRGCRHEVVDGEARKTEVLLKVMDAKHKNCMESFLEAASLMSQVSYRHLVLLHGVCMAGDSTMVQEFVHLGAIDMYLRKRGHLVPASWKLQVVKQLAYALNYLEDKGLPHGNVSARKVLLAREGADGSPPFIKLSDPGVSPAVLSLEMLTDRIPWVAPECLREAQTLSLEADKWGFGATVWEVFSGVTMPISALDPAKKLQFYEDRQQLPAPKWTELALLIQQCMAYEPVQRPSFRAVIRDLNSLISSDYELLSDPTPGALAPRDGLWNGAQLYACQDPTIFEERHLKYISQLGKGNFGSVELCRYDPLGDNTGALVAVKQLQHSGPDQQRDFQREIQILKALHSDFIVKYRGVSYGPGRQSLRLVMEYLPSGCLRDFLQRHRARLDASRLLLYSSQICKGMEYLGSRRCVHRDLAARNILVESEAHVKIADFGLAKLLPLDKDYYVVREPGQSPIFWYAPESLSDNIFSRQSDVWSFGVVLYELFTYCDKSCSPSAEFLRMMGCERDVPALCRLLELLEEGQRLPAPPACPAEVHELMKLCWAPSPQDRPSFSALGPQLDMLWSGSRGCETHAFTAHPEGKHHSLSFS
IC50 [1],IC50 [2],Structure (SMILES)
1.5 nM,1.1 nM,"CO[C@H]1CN(C(=O)C2(C#N)CC2)C[C@H]1Nc1c(C(N)=O)cnn2cc(-c3ccc(F)cc3)cc12 [Example 305, 4-(((3R,4S)-1-(1-cyanocyclopropanecarbonyl)-4-methoxypyrrolidin-3-yl)amino)-6-(4-fluorophenyl)pyrrolo[1,2-b]pyridazine-3-carboxamide]"
7 nM,4.5 nM,"CC[C@@H]1CN(C(=O)[C@H](C)O)CC[C@H]1Nc1c(C(N)=O)cnn2cc(-c3ccnc(OC)c3)cc12 [Example 134, 4-((3R,4R)-3-ethyl-1-((S)-2-hydroxypropanoyl)piperidin-4-ylamino)-6-(2-methoxypyridin-4-yl)pyrrolo[1,2-b]pyridazine-3-carboxamide]"
1.4 nM,2 nM,"CC[C@@H]1CN(C(=O)[C@H](C)O)CC[C@H]1Nc1c(C(N)=O)cnn2cc(-c3cnn(CC(C)C)c3)cc12 [Example 137, 4-((3R,4R)-3-ethyl-1-((S)-2-hydroxypropanoyl)piperidin-4-ylamino)-6-(1-isobutyl-1H-pyrazol-4-yl)pyrrolo[1,2-b]pyridazine-3-carboxamide]"
1.4 nM,0.5 nM,"C[C@H]1CN(C(=O)CC#N)C[C@H]1Nc1c(C(N)=O)cnn2cc(-c3ccnc(F)c3)cc12 [Example 201, 4-(((3S,4S)-1-(2-cyanoacetyl)-4-methylpyrrolidin-3-yl)amino)-6-(2-fluoropyridin-4-yl)pyrrolo[1,2-b]pyridazine-3-carboxamide]"
0.6 nM,0.3 nM,"C[C@H]1CN(c2ccc(C#N)cn2)C[C@H]1Nc1c(C(N)=O)cnn2cc(-c3cnn(CC(=O)N4CCC(F)(F)C4)c3)cc12 [Example 185, 4-(((3S,4S)-1-(5-cyanopyridin-2-yl)-4-methylpyrrolidin-3-yl)amino)-6-(1-(2-(3,3-difluoropyrrolidin-1-yl)-2-oxoethyl)-1H-pyrazol-4-yl)pyrrolo[1,2-b]pyridazine-3-carboxamide]"
1.4 nM,3.1 nM,"CCC(=O)N1C[C@H]2C[C@@H](Nc3c(C(N)=O)cnn4cc(-c5ccc(F)nc5)cc34)[C@H](C)[C@H]2C1 [Example 97, 6-(6-fluoropyridin-3-yl)-4-((3aS,4R,5R,6aS)-4-methyl-2-propionyloctahydrocyclopenta[c]pyrrol-5-ylamino)pyrrolo[1,2-b]pyridazine-3-carboxamide]"
0.5 nM,0.7 nM,"CC[C@H]1CN(C(=O)C2(C#N)CC2)C[C@H]1Nc1c(C(N)=O)cnn2cc(-c3cc(C)no3)cc12 [Example 292, 4-(((3S,4S)-1-(1-cyanocyclopropanecarbonyl)-4-ethylpyrrolidin-3-yl)amino)-6-(3-methylisoxazol-5-yl)pyrrolo[1,2-b]pyridazine-3-carboxamide]"
70 nM,120 nM,"NC(=O)c1cnn2cc(-c3cccnc3)cc2c1NC1CCOCC1 [Example 31, 6-(3-pyridinyl)-4-(tetrahydro-2H-pyran-4-ylamino)pyrrolo[1,2-b]pyridazine-3-carboxamide]"
20.9 nM,58 nM,"CS(=O)(=O)N1CCC[C@H](Nc2c(C(N)=O)cnn3cc(-c4ccccc4)cc23)C1 [Example 46, 4-(((3S)-1-(methylsulfonyl)-3-piperidinyl)amino)-6-phenylpyrrolo[1,2-b]pyridazine-3-carboxamide]"
7.1 nM,3.6 nM,"CC[C@@H]1CN(C(=O)C(C)(C)O)CC[C@H]1Nc1c(C(N)=O)cnn2cc(-c3ccnc(C)c3)cc12 [Example 131, 4-((3R,4R)-3-ethyl-1-(2-hydroxy-2-methylpropanoyl)piperidin-4-ylamino)-6-(2-methylpyridin-4-yl)pyrrolo[1,2-b]pyridazine-3-carboxamide]"
7.6 nM,21.6 nM,"NC(=O)c1cnn2cc(-c3ccc(F)cc3)cc2c1NC1CCOCC1 [Example 28, 6-(4-fluorophenyl)-4-(tetrahydro-2H-pyran-4-ylamino)pyrrolo[1,2-b]pyridazine-3-carboxamide]"

# Reference: US8987268B2, “Pyrrolopyridazine JAK3 inhibitors and their use for the treatment of inflammatory and autoimmune diseases” (Bristol-Myers Squibb Company, priority 2011, dated 2015)
